Measured values: patent publication US12485107B2, “Methods for the prevention or treatment of cytokine storm” (Beth Israel Deaconess Medical Center, Inc., priority 2019, dated 2025)
“Also recorded” adds a separate entry of the source.

What was measured:
[1] = test system: intraperitoneal ovarian tumors (ID8); assay: In vivo cytokines (serum, ascites) in mice bearing intraperitoneal ID8 ovarian tumors
Experimental: (§1) In vivo cytokines (serum or ascites) or cytokines in conditioned medium of macrophages treated with PTUPB and exposed to paclitaxel- or carboplatin-generated debris, were assessed according to the protocols provided by Proteome Profiler Mouse Cytokine Array Kit Panel A, Proteome Profiler Mouse Angiogenesis Array Kit, or Proteome Profiler Human Cytokine Array Kit Panel A (R&D Systems, Inc., Minneapolis, MN). Array control allows for comparison between membranes. For in vivo analysis, n=2 mice/group (serum); n=1 mouse/group (ascites).
(§2) For quantitation of pro-inflammatory cytokines, serum or conditioned medium from macrophages treated with PTUPB and stimulated with paclitaxel-generated ID8 debris or from paclitaxel-generated ID8 debris alone without macrophages was used according to the protocols provided in each ELISA kit (R&D Systems, Minneapolis, MN).
All animal studies were reviewed and approved by the Animal Care and Use Committee of Beth Israel Deaconess Medical Center, Boston, MA Mice were housed at a maximum of 5 animals per cage in a pathogen-free facility with unlimited access to sterile water and chow. Daily welfare evaluations and animal sacrifices were carried out according to the Committee guidelines. For murine injections, chemotherapy-generated murine (ID8) or human (OVCAR5) ovarian tumor cell debris was combined with ID8 or OVCAR5 living cells at equal volumes in PBS. Six-week-old female C57BL/6 (The Jackson Laboratory, Bar Harbor, ME) or SCID mice (Charles River, Cambridge, MA) were injected subcutaneously or intraperitoneally with 100 μL/mouse of ID8 or OVCAR5 cells, respectively. For orthotopic injections, 6-week-old C57BL/6 female mice were injected with 20 μL/mouse of matrigel (Becton Dickinson and Company, Franklin Lakes, NJ) mixed with paclitaxel-generated ID8 debris and/or ID8 living cells at a 1:1 (matrigel:cells) ratio directly into the right ovarian bursa. Systemic treatment with PTUPB (30 mg/kg/day) or control was administered via mini-osmotic pumps (Alzet Inc., Cupertino, CA) implanted into the peritoneum of the mice 4 weeks post-injection. […]

[2] = test system: primary murine peritoneal macrophages; assay: Cytokine array/ELISA of conditioned medium of primary murine peritoneal macrophages stimulated with paclitaxel-generated ID8 debris; format: cell-based; conditions: PTUPB 5 or 10 μM, 2 hours
Experimental: Macrophages were treated with vehicle or PTUPB (1-10 μM) in Dulbecco's phosphate-buffered saline containing calcium and magnesium (PBS^+/+) (Lonza, Basel, Switzerland) and incubated for 2 hours at 37° C. Carboplatin- or paclitaxel-generated ID8 or OVCAR5 debris was added to murine or human macrophages, respectively, at a 1:4 (macrophage:dead cell body) ratio and incubated for 1 hour at 37° C. Next, plates were aspirated, macrophages were re-fed with serum-free medium, and incubated overnight at 37° C. […]
as §1, with “Array control allows for comparison between membranes. For in vivo analysis, n=2 mice/group (serum); n=1 mouse/group (ascites).” left out
as §2, with “MN). […]” for “MN).”

[3] = test system: RAW264.7 murine macrophages; assay: Cytokine array/ELISA of conditioned medium of RAW264.7 macrophages stimulated with chemotherapy-generated ID8 debris; format: cell-based
Experimental: (§3) Macrophages were treated with vehicle or PTUPB (1-10 μM) in Dulbecco's phosphate-buffered saline containing calcium and magnesium (PBS^+/+) (Lonza, Basel, Switzerland) and incubated for 2 hours at 37° C. Carboplatin- or paclitaxel-generated ID8 or OVCAR5 debris was added to murine or human macrophages, respectively, at a 1:4 (macrophage:dead cell body) ratio and incubated for 1 hour at 37° C. Next, plates were aspirated, macrophages were re-fed with serum-free medium, and incubated overnight at 37° C. The conditioned medium was collected the next day, centrifuged at 1100 rpm for 5 minutes to remove particulates, and stored at −20° C. until further analysis via cytokine array, ELISA, or LC-MS/MS. Collection of RAW264.7 murine macrophage conditioned medium was repeated using debris from three distinct collections for a total of three separate experiments. Collection of human monocyte-derived macrophage conditioned medium was repeated using peripheral blood monocytes from three different human donors and debris from three distinct collections for a total of three separate experiments. Collection of primary murine peritoneal macrophages was repeated using macrophages pooled from 5-10 C57BL/6 female mice and debris from two distinct collections for a total of two separate experiments.
as §1, with “For in vivo analysis, n=2 mice/group (serum); n=1 mouse/group (ascites).” left out
as §2

[4] = test system: RAW264.7 murine macrophages; assay: Inflammatory cytokine array of RAW264.7 macrophages stimulated with ethanol-generated Hepa 1-6 debris; format: cell-based; conditions: 5 μM (combination 5 μM each), 2 hours pre-treatment
Experimental: Inflammatory cytokine array of RAW264.7 murine macrophage conditioned media co-cultured with ethanol-generated murine liver (Hepa 1-6) tumor cell debris and pre-treated for 2 hours with vehicle, PTUPB (5 μM), Ome-21i (5 μM), or Ome-21i+Celecoxib (5 μM each).
An inflammatory cytokine array of conditioned media from RAW264.7 macrophages treated with vehicle, PTUPB (5 μM), Ome-21i (5 μM), or Ome-21i (5 μM) and Celecoxib (5 μM) for 2 hours stimulated with ethanol-generated Hepa 1-6 debris is shown in FIG. 17. “Cytokine storm” released by debris-stimulated macrophages is prevented by the dual COX-2/sEH inhibitor PTUPB or sEH inhibitor Ome-21i and COX-2 inhibitor celecoxib.

[5] = test system: RAW264.7 murine macrophages; assay: LC-MS/MS oxylipin profiling of conditioned medium of debris-stimulated RAW264.7 macrophages; format: cell-based; conditions: 5 μM, 2 hours; paclitaxel-generated ID8 debris
Experimental: as §3
Oxylipins in conditioned medium from 3 biological repeats were analyzed by LC-MS/MS as described previously (Yang et al., Anal. Chem. 81(19):8085-8093 (2009)). In brief, 1 mL of medium was loaded onto the conditioned Oasis HLB solid phase extraction cartridge (Waters, Milford, MA), washed with 5% methanol solution, and eluted with 0.5 mL of methanol and 1.5 mL of ethyl acetate consequently. The elution was concentrated and reconstituted in 50 μL of methanol solution before injection into the UPLC/MS/MS system (Agilent 1200 SL and Sciex 4000 Qtrap system). The optimized parameters for LC-MS/MS were described in detail previously (Yang et al., supra).

[6] = test system: RAW264.7 murine macrophages; assay: Cytokine arrays of RAW264.7 macrophages stimulated with gemcitabine-generated PancOH7 debris; format: cell-based; conditions: 5 μM, 2 hours pre-treatment
Experimental: (A) Inflammatory and (B) angiogenic cytokine array of RAW264.7 murine macrophage conditioned media co-cultured with chemotherapy (gemcitabine)-generated murine pancreatic (PancOH7) tumor cell debris and pre-treated with vehicle or PTUPB (5 μM, 2 hours).
Inflammatory (FIG. 15A) and angiogenic (FIG. 15B) cytokine arrays of conditioned media from RAW264.7 macrophages treated with vehicle or PTUPB (5 uM) for 2 hours stimulated with gemcitabine-generated PancOH7 debris are shown in FIGS. 15A and 15B. “Cytokine storm” released by debris-stimulated macrophages is prevented by the dual COX-2/sEH inhibitor PTUPB.

[7] = test system: human monocyte-derived macrophage; format: cell-based; conditions: 5 μM, 2 hours

NS(=O)(=O)c1ccc(-n2nc(CCCNC(=O)Nc3ccc(C(F)(F)F)cc3)cc2-c2ccccc2)cc1 [PTUPB, 4-(5-phenyl-3-{3-[3-(4-trifluoromethyl-phenyl)-ureido]propyl}-pyrazol-1-yl) benzenesulfonamide]
serum levels of CXCL13/BCA-1 and SDF-1/CXCL12 ([1]; ID8-bearing mice administered systemic chemotherapy (carboplatin), PTUPB-treated vs control): reduced serum levels | ascites levels of PIGF-2, PTX-3, MMP9, CCL2/MCP-1, fractalkine/CX3CL1, angiopoietin-1 ([1]; intraperitoneal ID8 tumors, day 60 post-injection, vs control): decreased levels | pro-angiogenic factors serpin E1/PAI-1 and IGFBP1 in serum ([1]; mice i.p. injected with ID8 (1×10^6 living cells), day 60 post-injection, vs control): inhibited pro-angiogenic factors | debris-stimulated cytokine surge by primary murine peritoneal macrophages [2]: inhibited a debris-stimulated cytokine surge | debris-stimulated macrophage release of IL-1ra ([3]; FIGS. 4A, 4C, 5D, ID8 debris): suppressed debris-stimulated macrophage release of IL-1ra | pro-inflammatory cytokine surge (TNFα, MIP-2/CXCL2, MIP-1β/CCL4, CCL2/MCP-1, sICAM-1/CD54, G-CSF) by debris-stimulated macrophages ([3]; PTUPB 5 μM, 2 hours, paclitaxel- or carboplatin-generated ID8 debris): prevented the cytokine surge | angiogenic cytokine surge (serpin E1/PAI-1, osteopontin, MMP9, CCL2/MCP-1) by debris-stimulated macrophages ([3]; PTUPB 2.5 or 5 μM, 2 hours, paclitaxel- or carboplatin-generated ID8 debris): suppressed an angiogenic cytokine surge | cytokine storm released by macrophages stimulated with ethanol-generated Hepa 1-6 debris [4]: able to inhibit; also recorded: prevented | debris-stimulated surge of COX-derived lipid mediators PGF2α, PGD2, PGJ2 released by macrophages [5]: suppressed this debris-stimulated surge of bioactive lipids; also recorded: inhibits the surge | reduction of PGE2, THF diol, 15-HETE, 11-HETE, 5-HETE by debris-stimulated macrophages [5]: neutralized the reduction of these lipids; also recorded: neutralizing the reduction | release of 15-oxoETE by macrophages in the presence of debris [5]: suppressed the release of 15-oxoETE | cytokine storm (inflammatory and angiogenic arrays) released by macrophages stimulated with gemcitabine-generated PancOH7 debris [6]: prevented | cytokine storm induced by aflatoxin B1-generated HepG2 debris in human monocyte-derived macrophages [7]: inhibited
